Values quoted from earlier work in patent US20140178367A1, “Methods of Treating Inflammatory Diseases by Targeting the Chemoattractant Cytokine Receptor 2 (CCR2) or Chemokine (C-C motif) Ligand 2 (CCL2)” (THE Brigham and Women's Hospital, Inc., priority 2011, published 2014).

System: patients with ALS

SMILES: Nc1nc2ccc(OC(F)(F)F)cc2s1 [riluzole]
- prolongs life: only a few months
